# Measurements as given in patent US20010044445A1, “AZOLE INHIBITORS OF CYTOKINE PRODUCTION” (priority 1999, published 2001).
# Where two headings read alike, the source gives them in different places.
# Test system: Human peripheral blood mononuclear cells
# Experiment: Human Concanavalin-A Proliferation Assay (Con HU Assay)
# Format: cell-based
# Conditions: concanavalin-A stimulated human PBMC; for IC50: tritiated thymidine; for % Inhibition of proliferation (at concentrations of 1,10, or 100 μm) / inhibition at 100 µM / inhibition at 1 µM / inhibition at 10 µM: 3 days; for inhibition at 100 µM / inhibition at 1 µM / inhibition at 10 µM: 72 h, read-out: % Inhibition of proliferation (at concentrations of 1,10, or 100 μm)
# Method: Human peripheral blood mononuclear cells were cultured in RPMI 1640 medium supplemented with 10 μg/ml gentamicin, 50 μM 2-mercaptoethanol, 1X MEM non-essential amino acids (Sigma Chemical Co., St. Louis, Mo.), 100 U/ml sodium penicillin G, 100 μg/ml streptomycin sulfate, 2 mM L-glutamine, 1 mM sodium pyruvate (Life Technologies, Grand Island, N.Y.) and 10% fetal bovine serum (Hyclone, Logan, Utah) at 37° C. with 5% CO2.
# The procedure in Current Protocols in Immunology, Volume 1, Published by the Greene Publishing Associates and John Wiley & Sons, Inc, Edited by Richard Coico, 1994, hereby incorporated by reference, was followed. Briefly, 50 ml of blood from human volunteers was collected in heparinized syringes and mixed. Blood was diluted 1:1 in Dulbecco's phosphate buffered saline (D-PBS) (Life Technologies, Grand Island, N.Y.) and mixed. PBS-blood mixture was overlaid into 50 ml centrifuge tubes containing 15 ml Histopaque 1077 (Sigma Chemical Co., St. Louis, Mo.) and centrifuged at 500 X G for 30 minutes at room temperature. Cells at the interface from each Histopaque tube were removed and mixed with 5 ml of D-PBS. Each cell suspension was diluted to 50 ml with D-PBS, mixed and centrifuged at 400 X G for 15 minutes at room temperature. After most of the supernatant was removed, cells were resuspended to 40 ml with D-PBS per tube (2 tubes per donor). Cells were centrifuged at 400 X G for 10 minutes at room temperature. Pellets were resuspended in 10 ml of supplemented RPMI 1640 and cell number determined with a Coulter counter. Cells were diluted to a concentration of 0.5×10^6 cells per mL.
# The procedure in Current Protocols in Immunology, Volume 1, Published by the Greene Publishing Associates and John Wiley & Sons, Inc, Edited by Richard Coico, 1994, hereby incorporated by reference, was followed. Briefly, test compounds were added to appropriate wells on 96-well tissue culture plates (Corning Glass Works, Corning, N.Y.) in 20 µl of supplemented RPMI 1640. Human peripheral blood mononuclear cells were added to each well in 100 μl volumes (final cell concentration equal to 50,000 cells per well). After 15 minutes, 100 μl of 5 μg/ml concanavalin-A (Sigma Chemical Co., St. Louis, Mo.) in supplemented RPMI 1640 was added to a final concentration of 2.5 μg/ml. Plates were incubated for 3 days at 37° C. with 5% CO2. On day 3, plates were pulsed with 0.5 μCi/well tritiated thymidine (New England Nuclear, Boston, Mass.). After 6 hours, plates were harvested on a Tomatec 96-well havester (Orange, Conn.). Glass filter mats were counted on a Matrix 9600 direct beta counter (Packard, Meriden, Conn.).
# [1] = concentration 100 μm (in parentheses in the cell)
# [2] = Homo sapiens, PBMC, concentration 100 μm (in parentheses in the cell)
# [3] = Homo sapiens, PBMC, concentration 1 μm (in parentheses in the cell)
# [4] = Homo sapiens, PBMC, concentration 10 μm (in parentheses in the cell)
# [5] = concentration 1 μm (in parentheses in the cell)
compound,measurement,setting,value
"O=C(Nc1ccc(-n2nc(C(F)(F)F)cc2C(F)(F)F)cc1)C1CCCCC1 [Example 124, N-[4-[3,5-bis(trifluoromethyl)-1H-pyrazol-1-yl]phenyl]cyclohexanecarboxmide]",IC50,,0.285 µM
same,"% Inhibition of proliferation (at concentrations of 1,10, or 100 μm)",[1],99(100) %
"CC(C)(C)OC(=O)N1CCC(C(=O)Nc2ccc(-n3nc(C(F)(F)F)cc3C(F)(F)F)cc2)CC1 [Example 120, 1,1-Dimethylethyl 4-[[[4-[3,5-bis(trifluoromethyl)-1H-pyrazol-1-yl]phenyl]amino]carbonyl]-1-piperidinecarboxylate]",inhibition at 100 µM,[2],100%
same,IC50,"Homo sapiens, PBMC",0.488 µM
"O=C(Nc1ccc(-n2nc(C(F)(F)F)cc2C(F)(F)F)cc1)C1CC2C=CC1C2 (stereo not drawn) [Example 26, N-[4-[3,5-bis(trifluoromethyl)-1H-pyrazol-1-yl]phenyl]bicyclo[2.2.1]hept-5-ene-2-carboxamide]",inhibition at 1 µM,[3],24%
"O=C(Nc1ccc(-n2nc(C(F)(F)F)cc2C(F)(F)F)cc1)c1cc(Cl)cnc1Cl [Example 270, N-[4-[3,5-bis(trifluoromethyl)-1H-pyrazol-1-yl]phenyl]-2,5-dichloro-3-pyridinecarboxamide]",inhibition at 10 µM,[4],100%
same,IC50,"Homo sapiens, PBMC",0.228 µM
"N#Cc1cc(-c2nccs2)nn1-c1ccc(NC(=O)c2ccncc2F)cc1 [Example 341, N-(4-(5-cyano-3-(1,3-thiazol-2-yl)-1H-pyrazol-1-yl)phenyl)-3-fluoroisonicotinamide]",IC50,,0.191 µM
"CC(C)(C)OC(=O)NCCCC(=O)Nc1ccc(-n2nc(C(F)(F)F)cc2C(F)(F)F)cc1 [Example 173, 1,1-Dimethylethyl [[4-[4-[3,5-bis(trifluoromethyl)-1H-pyrazol-1-yl]phenyl]amino]-4-oxobutyl]carbamate]","% Inhibition of proliferation (at concentrations of 1,10, or 100 μm)",[5],28(1) %
"O=S(=O)(Nc1ccc(-n2nc(C(F)(F)F)cc2C(F)(F)F)cc1)c1cc(F)cc(F)c1 [Example 5, N-[4-[3,5-bis(trifluoromethyl)-1H-pyrazol-1-yl]phenyl]-3,5-difluorobenzenesulfonamide]",inhibition at 100 µM,[2],100%
same,IC50,"Homo sapiens, PBMC",33.7 µM
Cc1ccc([N+](=O)[O-])cc1NC(=O)Nc1ccc(-n2nc(C(F)(F)F)cc2C(F)(F)F)cc1 [Example 50],"% Inhibition of proliferation (at concentrations of 1,10, or 100 μm)",[5],2(1) %
"O=C(Nc1ccc(-n2nc(C(F)(F)F)cc2C(F)(F)F)nc1)c1ccccc1F [Example 292, N-(6-(3,5-bis(trifluoromethyl)-1H-pyrazol-1-yl)-3-pyridinyl)-2-fluorobenzamide]",IC50,"Homo sapiens, PBMC",0.258 µM
"O=C1CCC(C(=O)Nc2ccc(-n3nc(C(F)(F)F)cc3C(F)(F)F)cc2)N1 (stereo not drawn) [Example 255, N-[4-[3,5-bis(trifluoromethyl)-1H-pyrazol-1-yl]phenyl]-5-oxo-2-pyrrolidinecarboxamide]",inhibition at 1 µM,[3],12%
"COC(=O)c1cc(NC(=O)c2cc(Br)ccc2Cl)ccc1-n1nc(C(F)(F)F)cc1C(F)(F)F [Example 274, methyl 2-[3,5-bis(trifluoromethyl)-1H-pyrazol-1-yl]-5-[(5-bromo-2-chlorobenzoyl)amino]benzoate]",inhibition at 10 µM,[4],100%
same,IC50,"Homo sapiens, PBMC",2.18 µM
"O=C(Nc1ccc(-n2nc(C(F)(F)F)cc2C(F)(F)F)cc1)c1cc([N+](=O)[O-])cc([N+](=O)[O-])c1 [Example 134, N-[4-[3,5-bis(trifluoromethyl)-1H-pyrazol-1-yl]phenyl]-3,5-dinitrobenzamide]",inhibition at 100 µM,[1],100%
same,IC50,,2.77 µM
N-(4-(5-acetyl-3-(trifluoromethyl)-1H-pyrazol-1-yl)phenyl)-2-fluorobenzamide [Example 305],IC50,,0.17 µM
"N#Cc1cc(C2CCCO2)nn1-c1ccc(NC(=O)c2ccncc2F)cc1 (stereo not drawn) [Example 357, N-(4-(5-cyano-3-tetrahydro-2-furanyl-1H-pyrazol-1-yl)phenyl)-3-fluoroisonicotinamide]",IC50,"Homo sapiens, PBMC",1.85 µM
"CC1CCCCC1C(=O)Nc1ccc(-n2nc(C(F)(F)F)cc2C(F)(F)F)cc1 (stereo not drawn) [Example 27, N-[4-[3,5-bis(trifluoromethyl)-1H-pyrazol-1-yl]phenyl]-2-methylcyclohexanecarboxamide]",inhibition at 10 µM,[4],100%
same,IC50,"Homo sapiens, PBMC",0.299 µM
"Cc1nnsc1C(=O)Nc1ccc(-n2nc(-c3cccnc3)cc2C#N)cc1 [Example 331, N-(4-(5-cyano-3-(3-pyridinyl)-1H-pyrazol-1-yl)phenyl)-4-methyl-1,2,3-thiadiazole-5-carboxamide]",IC50,"Homo sapiens, PBMC",0.22 µM
"O=C(Nc1ccccc1Br)c1ccc(-n2nc(C(F)(F)F)cc2C(F)(F)F)cc1 [Example 192, 4-[3,5-Bis(trifluoromethyl)-1H-pyrazol-1-yl]-N-(2-bromophenyl)benzamide]",inhibition at 1 µM,[3],10%
"CCCCCCCc1ccc(C(=O)Nc2ccc(-n3nc(C(F)(F)F)cc3C(F)(F)F)cc2)cc1 [Example 111, N-[4-[3,5-bis(trifluoromethyl)-1H-pyrazol-1-yl]phenyl]-4-heptybenzamide]",IC50,,41 µM
same,"% Inhibition of proliferation (at concentrations of 1,10, or 100 μm)",[1],76(100) %
"O=C(Nc1ccc(-n2nc(C(F)(F)F)cc2C(F)(F)F)cc1)c1cc([N+](=O)[O-])c(Cl)c([N+](=O)[O-])c1Cl [Example 233, N-4-[3,5-bis(trifluoromethyl)-1H-pyrazol-1-yl]phenyl-2,4-dichloro-3,5-dinitrobenzamide]",IC50,,0.34 µM
same,"% Inhibition of proliferation (at concentrations of 1,10, or 100 μm)",concentration 10 μm (in parentheses in the cell),100(10) %
"O=C(Nc1ccc(-n2nc(C(F)(F)F)cc2C(F)(F)F)cc1)C1C=CCCC1 (stereo not drawn) [Example 53, N-[4-[3,5-bis(trifluoromethyl)-1H-pyrazol-1-yl]phenyl]-2-cyclohexane-1-carboxamide]",IC50,,0.202 µM
same,"% Inhibition of proliferation (at concentrations of 1,10, or 100 μm)",[1],99(100) %
"CCN(CC)c1ccc(C(=O)Nc2ccc(-n3nc(C(F)(F)F)cc3C(F)(F)F)cc2)cc1 [Example 122, N-[4-[3,5-bis(trifluoromethyl)-1H-pyrazol-1-yl]phenyl]-4-(diethylamino)benzamide]",inhibition at 1 µM,[3],15%
"O=C(Nc1ccc(-n2nc(C(F)(F)F)cc2C(F)(F)F)cc1)c1cc(Br)c(Br)s1 [Example 263, N-[4-[3,5-bis(trifluoromethyl)-1H-pyrazol-1-yl]phenyl]-2,3-dibromo-5-thiophenecarboxamide]",inhibition at 10 µM,[4],100%
same,IC50,"Homo sapiens, PBMC",2.93 µM
"N#Cc1cc(NC(=O)c2ccccc2F)ccc1-n1nc(C(F)(F)F)cc1C(F)(F)F [Example 299, N-(4-(3,5-bis(trifluoromethyl)-1H-pyrazol-1-yl)-3-cyanophenyl)-2-fluorobenzamide]",IC50,"Homo sapiens, PBMC",0.269 µM
"O=C(Nc1ccc(-n2nc(C(F)(F)F)cc2Cl)cc1)c1cccnc1F [Example 325, N-(4-(5-chloro-3-(trifluoromethyl)-1H-pyrazol-1-yl)phenyl)-2-fluoronicotinamide]",IC50,"Homo sapiens, PBMC",0.172 µM
"O=C(Nc1ccc(-n2nc(C(F)(F)F)cc2C(F)(F)F)cc1)c1sccc1Br [Example 161, N-[4-[3,5-bis(trifluoromethyl)-1H-pyrazol-1-yl]phenyl]-3-bromo-2-thiophenecarboxamide]",inhibition at 100 µM,[2],99%
same,IC50,"Homo sapiens, PBMC",0.231 µM
"O=C(Nc1ccc(-n2nc(C(F)(F)F)cc2-c2cccs2)cc1)c1ccccc1F [Example 308, 2-fluoro-N-(4-(5-(2-thienyl)-3-(trifluoromethyl)-1H-pyrazol-1-yl)phenyl)benzamide]",IC50,"Homo sapiens, PBMC",0.309 µM
"O=C(Nc1ccc(-n2nc(C(F)(F)F)cc2[N+](=O)[O-])cc1)c1ccccc1F [Example 326, 2-fluoro-N-(4-(5-nitro-3-(trifluoromethyl)-1H-pyrazol-1-yl)phenyl)benzamide]",IC50,"Homo sapiens, PBMC",0.166 µM
